Results published in paper PMC11232398, “Antimalarial activity of cecropin antimicrobial peptides derived from Anopheles mosquitoes” (Antimicrobial Agents and Chemotherapy, 2024).
Where two headings read alike, the source gives them in different places.

Key:
[1] = test system: P. falciparum 3D7 (sensitive strain); assay: In vitro antimalarial activity, 3-day inhibition assay; assay type: cell-based, Plasmodium falciparum
Method: Blood stages of the laboratory clones P. falciparum 3D7 (sensitive strain), P. falciparum 803 (artemisinin-resistant strain), and P. falciparum Dd2 (chloroquine-resistant strain) were cultured in vitro according to the method of Trager and Jensens with minor modifications ([37]). Briefly, cultures were maintained in O-positive human erythrocytes (RBCs) as host cells at 2% hematocrit and maintained in complete medium (CM) [RPMI-1640 culture medium supplemented with NaHCO3 (2 mg/mL), hypoxanthine (50 µg/mL), HEPES (5.96 mg/mL), albumax II (1%), and gentamicin (40 µg/mL)]. The cultures were diluted to 1% parasitemia and 2% hematocrit in CM and incubated in a humidified atmosphere with 5% O2, 5% CO2, and 90% N2 at 37°C. Prior to experiments, the cultures were highly synchronized for ring stages using 5% sorbitol twice at a 40-h interval. Briefly, ring stage cultures were centrifuged and the pellet was washed once in incomplete medium (ICM, RPMI-1640 without addition). Then, the pellet was resuspended in 5% sorbitol and incubated at 37°C for 10 min. After incubation, the suspension was centrifuged and the pellet was washed once and resuspended in medium. The development of the parasite was observed using light microscopy, and parasitemia was determined by counting at least 10,000 RBCs on Giemsa’s solution-stained thin blood smears.
Highly synchronous ring stage parasites were used to investigate the in vitro antimalarial activity of the peptides. For preliminary screening of in vitro antimalarial activity, a 3-day inhibition assay was used to test the antimalarial activity of An-cecA, An-cecB, and An-cecC. […] For IC50 assay, a series of concentrations of peptides were added to the parasite culture. The concentrations of An-cecB were 5, 15, 20, 25, 30, 35, and 40 µM, while those of An-cecB-1 were 20, 30, 40, 50, 60, 70, 80, and 90 µM. After 72 hours of incubation, the antimalarial effects of peptides were estimated. Thin blood films stained with Giemsa’s solution were counted under a microscope. The parasitemia of cultures treated with peptides was compared with that of control. IC50 was calculated by GraphPad Prism.

[2] = test system: HEK293T cells
Method: The mammalian cell lines HepG2 and HEK293T were used for cytotoxicity tests. The cells were cultured in Dulbecco’s modified Eagle medium supplemented with 10% fetal bovine serum and 1% penicillin/streptomycin in an incubator at 37°C with 5% CO2. Cells were seeded at a density of 1 × 10^5 cells/mL per well into a 96-well plate overnight and treated with different concentrations of peptides for 48 hours. To analyze the CC50 of peptides, a series of concentrations of peptides (0, 5, 10, 20, 30, 40, 50, 60, and 70 µM) were set to detect their cytotoxic concentrations. Then, 10% CCK-8 solution was added into each well and incubated for another 2 hours. The absorbance was monitored by a microplate reader at 450 nm. PBS was used as a negative control and the inhibition of each drug was normalized to that of the PBS control. CC50 was calculated by GraphPad Prism. Two independent assays with three technical replicates each time were conducted.

[3] = test system: Bacillus subtilis (ATCC); assay: Antimicrobial assay, broth dilution; assay type: cell-based; conditions: B. subtilis
Method: (§1) Gram-positive bacteria S. aureus, B. subtilis, and Gram-negative E. coli were used in antimicrobial assays. Bacteria were first grown in LB (Luria-Bertani) broth to an absorbance of 0.8 at 600 nm. The antibacterial behavior of the peptides was studied via the agar disc diffusion assay and broth microdilution method ([41], [42]). The agar plates were made by pouring 20 mL of LB broth containing 1.5% agar into 60-mm Petri dishes. Then, a 100-µL bacterial suspension (10^6 CFU/mL) was spread over the LB agar plate. Ten microliters of the 2-mg/mL peptide sample was carefully dropped onto sterile 2-mm diameter paper discs that had been previously attached to the plate. The plates were carefully placed in an incubator at 37°C for 24 hours. If an examined sample had antimicrobial activity, a clear zone was observed around the filter paper representing inhibition of bacterial growth. The MIC was determined by the broth dilution method, and the absorbance value was measured at an optical density at 600 nm (OD600) to determine the inhibition rate of peptides at different concentrations against each bacteria. Then, the MIC at which no visible growth occurred was recorded ([38]). The MIC50 was calculated by GraphPad Prism.

[4] = test system: Escherichia coli (ATCC 25922); assay: Antimicrobial assay, broth dilution; assay type: cell-based; conditions: E. coli
Method: as §1

[5] = test system: Staphylococcus aureus (ATCC 6538); assay: Antimicrobial assay, broth dilution; assay type: cell-based; conditions: S. aureus
Method: as §1

[6] = test system: methyl-β-cyclodextrin-treated RBCs; assay: Hemolytic activity on cholesterol-depleted erythrocytes; assay type: cell-based, human; conditions: RBCs treated with 7.5 mM methyl-β-cyclodextrin for 2 hours at 37°C
Source text: Cholesterol is the main component of the RBC membrane and is important for maintaining its stability ([39]). Plasmodium falciparum infection efficiently depletes the red blood cells of cholesterol, which renders […] membranes susceptible to lysis ([40]). Therefore, methyl-β-cyclodextrin treatment was used to simulate the RBC cholesterol depletion caused by infection with Plasmodium. RBCs were washed once and then resuspended with PBS at 0.5% hematocrit. After treatment with the indicated concentration (7.5 mM) of methyl-β-cyclodextrin (Sigma) in RPMI for 2 hours at 37°C, the treated RBCs were washed with PBS and hemolysis assays were performed as described above. Two independent tests with five technical replicates were performed for each hemolysis assay.

[7] = test system: RBCs infected by schizonts of P. falciparum 3D7; assay: Hemolytic activity on RBCs infected by schizonts; assay type: cell-based, human; conditions: percoll-purified 3D7 schizonts, 2% hematocrit in PBS
Method: To test the hemolytic activity of the peptides against RBCs infected by Plasmodium, schizonts of the P. falciparum 3D7 strain were collected. The parasite culture of mainly schizonts was centrifuged and resuspended to 50% hematocrit. Then, the resuspended culture was carefully laid on top of the gradient with 3 mL 70% and 3 mL 40% percoll-sorbitol solution. After centrifugation at 2,300 × g for 20 min at 20°C, schizonts from the 40/70% interface were collected and washed twice with 10× volume of ICM. The collected parasites were resuspended in PBS to 2% hematocrit for hemolysis assay as described above.

[8] = test system: Plasmodium falciparum 3D7; assay: Transmission electron microscope analysis of parasite morphology; assay type: cell-based; conditions: TEM
Method: 3D7 strain parasites with parasitemia of 3% ~ 5% at a hematocrit of 2% were planted in 12-well plates, 3 mL/well. A 40-µM concentration of An-cecB or 200 µM An-cecB-1 was added and incubated for 30 min or 60 min. PBS was used as a control.
After incubation, the parasites were washed three times with ICM, and the electron microscope fixative solution (provided by the company) was added to keep the parasites clumped for 2 hours at room temperature. Finally, the samples were sent to a commercial company at 4°C for transmission electron microscope analysis.

[9] = test system: Plasmodium berghei (ANKA); assay type: in vivo; conditions: parasitemia on day 4, BALB/c mice
Method: The in vivo antimalarial activity of peptides was evaluated using a 4-day suppressive test in P. berghei-infected mouse model mice ([44]). The mice were divided into five groups of six mice. Donor mice were infected with 200 µL of P. berghei parasite inoculum by intraperitoneal injection. Parasitized blood was collected from the tail vein of donor mice and diluted with 0.9% sodium chloride solution. Mice were then infected with saline suspension of 1 × 10^7 parasitized erythrocytes (0.2 mL) by intraperitoneal injection (Day0). Four hours after infection, each of the three groups of mice was treated with peptide by intraperitoneal injection at daily doses of 10, 25, and 50 mg/kg for 4 consecutive days. Positive control mice were treated with chloroquine at daily doses of 10 mg/kg and negative control mice with normal saline. On day 4 (96 hours post infection), the parasitemia of each mouse was determined under a light microscope by examination of Giemsa’s solution-stained thin blood smears prepared from mouse tail blood ([28]). The mean parasitemia in each group of mice was used to calculate the % suppression for each dose using the following formula:
%suppression = (parasitemia of negative control − parasitemia of test) * 100/parasitemia of negative control.
The antimalarial activity of the peptides was determined from the ratio of the percentage of parasite reduction in treated and negative control groups ([44]). Results were expressed as median (range) values.

[10] = 200 µM peptide, 3D7, Giemsa smears
[11] = 50 µM peptide, 72 h, ring stage, 1% parasitemia, 2% hematocrit, Giemsa smears
[12] = 40 µM An-cecB or 200 µM An-cecB-1, total 20 / 22

RAAKKALPVIAGYKAL-NH2 [An-cecB-2] was tested, and the inhibition rate [1, 10] was 12.14% and the “cytotoxicity to HEK293T cells” value [2] was “No cytotoxicity”.
Substance “RRFKKFLKKVEGAGRRVANAA QKGLPLAAGVKGL-NH2 [An-cecC]” has an inhibition rate [1, 11] of 40.16%.
“GRLKKLGKKIEGAGKRVFKAA EKALPVVAGVKAL-NH2 [An-cecA]” gave an inhibition rate [1, 11] of 18.7%.
Substance APRWKFGKRLEKLGRNVF-NH2 [An-cecB-1] has an inhibition rate [1, 10] of 83.67%, an IC50 ([1]; 3D7, 72 h incubation, Giemsa smears, GraphPad Prism, two independent assays, three technical replicates) of 68.6 µM and an MIC ([3]; OD600) of 25 µM. For the same substance, the MIC50 ([3]; OD600, GraphPad Prism) was 18.94 µM, the MIC ([4]; OD600) was 25 µM and the MIC50 ([4]; OD600, GraphPad Prism) was 12.7 µM. For the same substance, the MIC ([5]; OD600) was greater than 200 µM, the MIC50 ([5]; OD600, GraphPad Prism) was greater than 200 µM and the “hemolysis of cholesterol-depleted erythrocytes” value [6] was “no hemolysis effect”. For the same substance, the “hemolytic activity to infected erythrocytes” value [7] was “did not”, the “Normal (number of parasites)” value ([8]; 40 µM An-cecB or 200 µM An-cecB-1, 30 or 60 min, total 20 (An-cecB), 22 (An-cecB-1)) was 7 and the “Disintegration (number of parasites)” value [8, 12] was 0. For the same substance, the “Parasite disoriented (number of parasites)” value [8, 12] was 0, the “Parasite membrane dissolution (number of parasites)” value [8, 12] was 2 and the “Parasite shrunken (number of parasites)” value [8, 12] was 15. For the same substance, the “Vacuole formation (number of parasites)” value [8, 12] was 7, the “Inhibition (%) of P. berghei growth” value ([9]; 10 mg/kg daily i.p. for 4 consecutive days) was 17.03% and the “Inhibition (%) of P. berghei growth” value ([9]; 25 mg/kg daily i.p. for 4 consecutive days) was 39.35%. For the same substance, the “Inhibition (%) of P. berghei growth” value ([9]; 50 mg/kg daily i.p. for 4 consecutive days) was 54.19% and the “cytotoxicity to HEK293T cells” value [2] was “No cytotoxicity”.
For GKRLEKLGRNVFRAAKK-NH2 [An-cecB-3], the inhibition rate [1, 10] was 24.74% and the “cytotoxicity to HEK293T cells” value [2] was “No cytotoxicity”.
